# Target: T1, p53(Y220C) (Homo sapiens, UniProt P04637, Y220C)
# T1 construct: His-p53 Y220C (94-294) protein
# Test: In vitro DNA binding assay (HTRF), His-p53 Y220C (94-294) with biotinylated p53 consensus DNA
# Format: biochemical
# Details: not given
# Method: After His-p53 Y220C (94-294) protein was placed with a compound in the present of MAb Anti His-Tb cryptate (Cisbio, Cat. NO. 61HI2TLA) in a 384 well microplate (Greiner) for 15 min at 25 °C, the assay plate was transferred into 27 °C incubator and incubated for 60 min. Biotinalyted p53 consensus DNA (ID: p53-SEQUENCE 2 —F: 5′(biotin)-[…] 3′ —R: 5′ […] 3′) was added into the assay plate in the present of Streptaidin-d2 (Cisbio, Cat. NO. 610SADLF) cryptate (Final concentration: 20 mM HEPES pH=7.4, 75 mM KCl, 1 mM MgCl2, 0.1% (w/v) BSA, 1 mM DTT, 2.5 nM His-P53 Y220C (94-294) protein, 0.33 nM MAb Anti His-Tb cryptate, 2.5 nM Streptaidin-d2 cryptate, 10 nM Biotinalyted DNA) and incubated for another 60 min. Wells containing 2 μM reference compound Ref-1a served as high control, and wells containing same percentage of DMSO served as low control. Homogeneous time-resolved fluorescence (HTRF) signals were read on Tecan Spark multimode microplate reader. HTRF ratios for each individual well were calculated by equation: HTRF ratio=(Signal F665/Signal F620)*1000. The percent of activation of compounds treated wells were normalized between high control and low control (% Activation=(HTRF ratiocompound treated−HTRF ratiolow control)/(HTRF ratiohigh control−HTRF ratiolow control)*100%). Then the data were analyzed either by fitting a 4-parameter logistic model or by Excel to calculate EC50 values. And the EC50 was the concentration at 50% Activation on the curve.
row,EC50,SMILES
1,124 nM,"COc1cc(P(C)(C)=O)ccc1NCC#Cc1sc2c(N[C@H]3CN4CCC3CC4)cccc2c1CC(F)(F)F [Example 46, (R)-(3-methoxy-4-((3-(7-(quinuclidin-3-ylamino)-3-(2,2,2-trifluoroethyl)benzo[b]thiophen-2-yl)prop-2-yn-1-yl)amino)phenyl)dimethylphosphine oxide]"

# Same assay, conditions: HTRF; 27 °C; His-p53 Y220C (94-294) 2.5 nM; biotinylated DNA 10 nM; normalized to 2 μM Ref-1a; EC50 = concentration at 50% Activation; read-out: p53(Y220C) EC50
row,EC50,SMILES
1,353 nM,"COc1cc(P(C)(C)=O)ccc1NCC#Cc1sc2c(NC3CCN(C)CC3)nccc2c1CC(F)(F)F [Example 4, (3-methoxy-4-((3-(7-((1-methylpiperidin-4-yl)amino)-3-(2,2,2-trifluoroethyl)thieno[2,3-c]pyridin-2-yl)prop-2-yn-1-yl)amino)phenyl)dimethylphosphine oxide]"
2,323 nM,"COc1cc(N2CC(=O)NS2(=O)=O)ccc1NCC#Cc1sc2c(N[C@@H]3CCN(C)C[C@@H]3F)cccc2c1CC(F)(F)F [Example 5, 5-(4-((3-(7-(((3S,4R)-3-fluoro-1-methylpiperidin-4-yl)amino)-3-(2,2,2-trifluoroethyl)benzo[b]thiophen-2-yl)prop-2-yn-1-yl)amino)-3-methoxyphenyl)-1,2,5-thiadiazolidin-3-one-1,1-dioxide]"
3,209 nM,"COc1cc(P(C)(C)=O)ccc1NCC#Cc1sc2c(NC3CCS(=N)(=O)CC3)cccc2c1CC(F)(F)F (centres unmarked) [Example 6, (4-((3-(7-((1-imino-1-oxidohexahydro-1l6-thiopyran-4-yl)amino)-3-(2,2,2-trifluoroethyl)benzo[b]thiophen-2-yl)prop-2-yn-1-yl)amino)-3-methoxyphenyl)dimethylphosphine oxide]"
4,250 nM,"COc1cc(P(C)(C)=O)ccc1NCC#Cc1sc2c(NCC3(F)CCN(C)CC3)cccc2c1CC(F)(F)F [Example 16, (4-((3-(7-(((4-fluoro-1-methylpiperidin-4-yl)methyl)amino)-3-(2,2,2-trifluoroethyl)benzo[b]thiophen-2-yl)prop-2-yn-1-yl)amino)-3-methoxyphenyl)dimethylphosphine oxide]"
5,251 nM,"COc1cc(P(C)(C)=O)ccc1NCC#Cc1sc2c(N[C@H]3CCN(C)C[C@H]3F)cccc2c1C(C)C(F)(F)F (stereo partly drawn) [Example 17, (4-((3-(7-(((3R,4S)-3-fluoro-1-methylpiperidin-4-yl)amino)-3-(1,1,1-trifluoropropan-2-yl)benzo[b]thiophen-2-yl)prop-2-yn-1-yl)amino)-3-methoxyphenyl)dimethylphosphine oxide]"
6,574 nM,"COc1cc(P(C)(C)=O)ccc1NCC#Cc1sc2c(N[C@@H]3CCN(C)C[C@@H]3F)cccc2c1C(C)C(F)(F)F (stereo partly drawn) [Example 18, (4-((3-(7-(((3S,4R)-3-fluoro-1-methylpiperidin-4-yl)amino)-3-(1,1,1-trifluoropropan-2-yl)benzo[b]thiophen-2-yl)prop-2-yn-1-yl)amino)-3-methoxyphenyl)dimethylphosphine oxide]"
7,424 nM,"CN1CC[C@@H](Nc2cccc3c(CC(F)(F)F)c(C#C[C@@H]4Cc5cc(P(C)(C)=O)ccc5N4)sc23)[C@@H](F)C1 [Example 21, ((S)-2-((7-(((3S,4R)-3-fluoro-1-methylpiperidin-4-yl)amino)-3-(2,2,2-trifluoroethyl)benzo[b]thiophen-2-yl)ethynyl)indolin-5-yl)dimethylphosphine oxide]"
8,313 nM,"CN1CC[C@@H](Nc2cccc3c(CC(F)(F)F)c(C#C[C@H]4Cc5cc(P(C)(C)=O)ccc5N4)sc23)[C@@H](F)C1 [Example 22, ((R)-2-((7-(((3S,4R)-3-fluoro-1-methylpiperidin-4-yl)amino)-3-(2,2,2-trifluoroethyl)benzo[b]thiophen-2-yl)ethynyl)indolin-5-yl)dimethylphosphine oxide]"
9,62 nM,"COc1cc([S@](=N)(=O)C2CCOCC2)ccc1NCC#Cc1sc2c(N[C@@H]3CCN(C)C[C@@H]3F)cccc2c1CC(F)(F)F [Example 25, (R)-(4-((3-(7-(((3S,4R)-3-fluoro-1-methylpiperidin-4-yl)amino)-3-(2,2,2-trifluoroethyl)benzo[b]thiophen-2-yl)prop-2-yn-1-yl)amino)-3-methoxyphenyl)(imino)(tetrahydro-2H-pyran-4-yl)-16-sulfanone]"
10,74 nM,"COc1cc([S@@](=N)(=O)C(C)C)ccc1NCC#Cc1sc2c(N[C@@H]3CCN(C)C[C@@H]3F)cccc2c1CC(F)(F)F [Example 27, (S)-(4-((3-(7-(((3S,4R)-3-fluoro-1-methylpiperidin-4-yl)amino)-3-(2,2,2-trifluoroethyl)benzo[b]thiophen-2-yl)prop-2-yn-1-yl)amino)-3-methoxyphenyl)(imino)(isopropyl)-16-sulfanone]"
11,155 nM,"COc1cc(P(C)(C)=O)ccc1NCC#Cc1sc2c(N[C@H]3CCCN(C)C3)cccc2c1CC(F)(F)F [Example 29, (S)-(3-methoxy-4-((3-(7-((1-methylpiperidin-3-yl)amino)-3-(2,2,2-trifluoroethyl)benzo[b]thiophen-2-yl)prop-2-yn-1-yl)amino)phenyl)dimethylphosphine oxide]"
12,117 nM,"COc1cc(P(C)(C)=O)ccc1NCC#Cc1sc2c(N[C@H]3CCN(C)C[C@H]3F)cccc2c1[C@H](O)C(F)(F)F [Example 32, (4-((3-(7-(((3R,4S)-3-fluoro-1-methylpiperidin-4-yl)amino)-3-((S)-2,2,2-trifluoro-1-hydroxyethyl)benzo[b]thiophen-2-yl)prop-2-yn-1-yl)amino)-3-methoxyphenyl)dimethylphosphine oxide]"
13,192 nM,"COc1cc(S(C)(=O)=O)ccc1NCC#Cc1sc2c(N[C@H]3CCN(C)C[C@H]3F)cccc2c1CC(F)(F)F [Example 35, (3R,4S)-3-fluoro-N-(2-(3-((2-methoxy-4-(methylsulfonyl)phenyl)amino)prop-1-yn-1-yl)-3-(2,2,2-trifluoroethyl)benzo[b]thiophen-7-yl)-1-methylpiperidin-4-amine]"
14,373 nM,"COc1cc(P(C)(C)=O)ccc1NCC#Cc1sc2c(N[C@H]3CCN(C)C[C@@H]3F)cccc2c1CC(F)(F)F [Example 38, (4-((3-(7-(((3S,4S)-3-fluoro-1-methylpiperidin-4-yl)amino)-3-(2,2,2-trifluoroethyl)benzo[b]thiophen-2-yl)prop-2-yn-1-yl)amino)-3-methoxyphenyl)dimethylphosphine oxide]"
15,292 nM,"CN1CC[C@@H](Nc2cccc3c(CC(F)(F)F)c(C#CCNc4ccc(P(C)(C)=O)cc4-c4nc(=O)o[nH]4)sc23)[C@@H](F)C1 [Example 39, 3-(5-(dimethylphosphoryl)-2-((3-(7-(((3S,4R)-3-fluoro-1-methylpiperidin-4-yl)amino)-3-(2,2,2-trifluoroethyl)benzo[b]thiophen-2-yl)prop-2-yn-1-yl)amino)phenyl)-1,2,4-oxadiazol-5(2H)-one]"
16,473 nM,"COc1cc(-c2nc(=O)o[nH]2)ccc1NCC#Cc1sc2c(N[C@@H]3CCN(C)C[C@@H]3F)cccc2c1CC(F)(F)F [Example 40, 3-(4-((3-(7-(((3S,4R)-3-fluoro-1-methylpiperidin-4-yl)amino)-3-(2,2,2-trifluoroethyl)benzo[b]thiophen-2-yl)prop-2-yn-1-yl)amino)-3-methoxyphenyl)-1,2,4-oxadiazol-5(2H)-one]"
17,188 nM,"COc1cc([S@](=N)(=O)C(F)F)ccc1NCC#Cc1sc2c(N[C@@H]3CCN(C)C[C@@H]3F)cccc2c1CC(F)(F)F [Example 51, (S)-(difluoromethyl)(4-((3-(7-(((3S,4R)-3-fluoro-1-methylpiperidin-4-yl)amino)-3-(2,2,2-trifluoroethyl)benzo[b]thiophen-2-yl)prop-2-yn-1-yl)amino)-3-methoxyphenyl)(imino)-16-sulfanone]"
18,135 nM,"COc1cc([S@@](=N)(=O)C(F)F)ccc1NCC#Cc1sc2c(N[C@@H]3CCN(C)C[C@@H]3F)cccc2c1CC(F)(F)F [Example 52, (R)-(difluoromethyl)(4-((3-(7-(((3S,4R)-3-fluoro-1-methylpiperidin-4-yl)amino)-3-(2,2,2-trifluoroethyl)benzo[b]thiophen-2-yl)prop-2-yn-1-yl)amino)-3-methoxyphenyl)(imino)-16-sulfanone]"

row,SMILES,EC50
1,"[2H]C([2H])([2H])Oc1cc(P(C)(C)=S)ccc1NCC#Cc1sc2c(N[C@@H]3CCN(C)C[C@@H]3F)cccc2c1CC(F)(F)F [Example 47, (4-((3-(7-(((3S,4R)-3-fluoro-1-methylpiperidin-4-yl)amino)-3-(2,2,2-trifluoroethyl)benzo[b]thiophen-2-yl)prop-2-yn-1-yl)amino)-3-(methoxy-d3)phenyl)dimethylphosphine sulfide]",180 nM

# From US20260374794A1, “COMPOUNDS TARGETING MUTANT OF P53” (JACOBIO PHARMACEUTICALS CO., LTD., priority 2022, published 2026)
